In patent publication US8685462B1, “Whole, leech saliva product and applications thereof” (priority 2012, dated 2014):

Assays:
[1] = system: Candida albicans ATCC10231; experiment: Kirby-Bauer disc diffusion; details: reference antibiotic disc, 100 unit
[2] = system: Cryptococcus neoformans ATCC90112; experiment: Kirby-Bauer disc diffusion; details: reference antibiotic disc, 100 unit
induced-diabetic rats = experiment: Antihyperglycemic activity: fasting blood glucose in alloxan-induced diabetic rats; assay type: in vivo, rat

`C[C@@H]1[C@H](O)[C@@H](C)/C=C/C=C/CC/C=C/C=C/C=C/C=C/C(O[C@H]2O[C@H](C)[C@@H](O)[C@H](N)[C@@H]2O)CC2O[C@](O)(CC(O)C(O)CCC(O)CC(O)CC(O)CC(=O)O[C@H]1C)CC(O)C2C(=O)O` (some centres unmarked) [Nystatin, nystatin] was tested, and the Zone of inhibition [1] was 10 mm and the Zone of inhibition [2] was 9 mm.
“insulin: insulin from bovine pancreas (≧27 units/mg), suspension in distilled water” was tested, and the “FBG after two hours of injection” value (induced-diabetic rats; diabetic rats, s.c., two hours) was “sharp significant decrease”, the “difference between normal rats and treated diabetic rats” value (induced-diabetic rats; either dose) was “No significant difference” and the “FBG after 8 hours of treatment” value (induced-diabetic rats; lower dose of insulin (10 units/kg b.w)) was “returned to the diabetic state”.
